Consider 4 compounds from publication PMC12004451, “Characterization of the Two-Domain Peptide Binding Mechanism of the Human CGRP Receptor for CGRP and the Ultrahigh Affinity ssCGRP Variant” (Biochemistry, 2025).

Assay [1] addresses T1, CGRP receptor (Nluc-CLR:RAMP1) (Homo sapiens, UniProt O60894+Q16602).
T1 construct: N-terminally Nanoluciferase (NLuc)-tagged CLR (pcDNA3.1(+)sec/NanoLuc-GSGIS-CLR.23-461); Wild-type CLR and RAMP expression plasmids were obtained from cDNA.org; sec (vector secretion signal before NanoLuc) (N); expressed in transfected cells; host or cells: COS-7 cells, membrane preparation
Nature of the assay: nanoBRET equilibrium competition binding, Nluc-CLR:RAMP1 membranes. As to conditions: room temperature, Cheng-Prusoff, mean ± SEM, n=3. As to the method: After 2 days, the cells were washed with PBS and harvested with ice-cold PBS + 5 mM EDTA. The cells were pelleted in a centrifuge at 1000g for 5 min at 4 °C and resuspended in a hypotonic buffer (25 mM NaHEPES pH 7.5, 2 mM MgCl2, 1 mM EDTA, and 1× EDTA-free PIERCE protease inhibitor tablet). After resuspension, cells were homogenized with an Ultra Turrax for 30 s at 10,000 rpm followed by a 10 min incubation. Cell debris was pelleted at 800g for 10 min and the supernatant was transferred to ultracentrifuge tubes and centrifuged at 100,000g for 1 h. Membranes were resuspended in a wash buffer (25 mM NaHEPES pH 7.5, 250 mM NaCl, 2 mM MgCl2, 1 mM EDTA, and 1× protease inhibitor tablet). The homogenization and ultracentrifugation were repeated once more and the membranes were resuspended in storage buffer (25 mM NaHEPES pH 7.5, 25 mM NaCl, 2 mM MgCl2, 10% v/v glycerol, and 1× protease inhibitor tablet). The resuspended membranes were homogenized, aliquoted, and flash frozen in liquid nitrogen for storage at -80 °C. Total protein was quantitated using the DC protein assay (BioRad) per the manufacturer's instructions. The concentration of NLuc-CLR was determined by comparing the membrane prep luminescence to a standard curve using purified NLuc enzyme (Promega; […]). […] The Cheng-Prusoff correction[30] was used to calculate the Ki from the IC50.
On the technique in general: In BRET a luciferase serves as donor, and the signal depends on an acceptor being close.

For assay [2], the target named is T1, CGRP receptor (Nluc-CLR:RAMP1). The assay can be described thus: nanoBRET competition association kinetics (Motulsky-Mahan). The format is binding. The following applies: for Kd: mean ± SEM, n=3, read-out: Kd calc (koff/kon). Here is the method:
Membrane preparation was performed as previously described.[29] COS-7 cells in ten […] plastic culture dishes (Corning; 430599) were transiently transfected with 2 μg NLuc-CLR, 2 μg RAMP1, and 46 μg empty pcDNA3.1(+) expression plasmids/dish with 75 μg Polyethylenimine (PEI)/dish. After 2 days, the cells were washed with PBS and harvested with ice-cold PBS + 5 mM EDTA. The cells were pelleted in a centrifuge at 1000g for 5 min at 4 °C and resuspended in a hypotonic buffer (25 mM NaHEPES pH 7.5, 2 mM MgCl2, 1 mM EDTA, and 1× EDTA-free PIERCE protease inhibitor tablet). After resuspension, cells were homogenized with an Ultra Turrax for 30 s at 10,000 rpm followed by a 10 min incubation. Cell debris was pelleted at 800g for 10 min and the supernatant was transferred to ultracentrifuge tubes and centrifuged at 100,000g for 1 h. Membranes were resuspended in a wash buffer (25 mM NaHEPES pH 7.5, 250 mM NaCl, 2 mM MgCl2, 1 mM EDTA, and 1× protease inhibitor tablet). The homogenization and ultracentrifugation were repeated once more and the membranes were resuspended in storage buffer (25 mM NaHEPES pH 7.5, 25 mM NaCl, 2 mM MgCl2, 10% v/v glycerol, and 1× protease inhibitor tablet). The resuspended membranes were homogenized, aliquoted, and flash frozen in liquid nitrogen for storage at −80 °C. Total protein was quantitated using the DC protein assay (BioRad) per the manufacturer’s instructions. The concentration of NLuc-CLR was determined by comparing the membrane prep luminescence to a standard curve using purified NLuc enzyme (Promega; G9711). The total protein concentration was 0.91 mg/mL and the NLuc-CLR was 7.35 nM.
Emission at 460 and 610 nm were measured every 16 s for 45 min with the PolarSTAR Omega plate reader mixing 300 rpm for 1 s before each cycle. The curves were fit using GraphPad Prism to the Motulsky-Mahan competition kinetics equation[31] modified to account for the signal decay component as previously described[32] to determine the kon and koff of the competitor. The Kd (koff/kon), half-life (ln 2/koff), and residence time (1/koff) values were calculated.

For assay [3] the target is unchanged. Nature of the assay: nanoBRET association kinetics of TAMRA probes. The format is binding. Here is the method:
After 2 days, the cells were washed with PBS and harvested with ice-cold PBS + 5 mM EDTA. The cells were pelleted in a centrifuge at 1000g for 5 min at 4 °C and resuspended in a hypotonic buffer (25 mM NaHEPES pH 7.5, 2 mM MgCl2, 1 mM EDTA, and 1× EDTA-free PIERCE protease inhibitor tablet). After resuspension, cells were homogenized with an Ultra Turrax for 30 s at 10,000 rpm followed by a 10 min incubation. Cell debris was pelleted at 800g for 10 min and the supernatant was transferred to ultracentrifuge tubes and centrifuged at 100,000g for 1 h. Membranes were resuspended in a wash buffer (25 mM NaHEPES pH 7.5, 250 mM NaCl, 2 mM MgCl2, 1 mM EDTA, and 1× protease inhibitor tablet). The homogenization and ultracentrifugation were repeated once more and the membranes were resuspended in storage buffer (25 mM NaHEPES pH 7.5, 25 mM NaCl, 2 mM MgCl2, 10% v/v glycerol, and 1× protease inhibitor tablet). The resuspended membranes were homogenized, aliquoted, and flash frozen in liquid nitrogen for storage at -80 °C. Total protein was quantitated using the DC protein assay (BioRad) per the manufacturer's instructions. The concentration of NLuc-CLR was determined by comparing the membrane prep luminescence to a standard curve using purified NLuc enzyme (Promega; […]). […] Costar 3912). […] The observed association rates (kobs) were plotted against probe concentration and the data was analyzed by linear regression. The kon and koff were obtained as the slope and y-intercept, respectively.

The mark [4] stands for this setting: competition against 10 nM CGRP(27-37)*-TAMRA probe, 2 h, read-out: Ki.

Several values for one entry are separate records, joined by “and”; a condition that tells them apart may be missing. Equal entries are not always repeated. Where two headings read alike, the source gives them in different places. Bridge positions count the residues as written; N and C are the ends. Ends that are not written are not given here. Peptide text beside a SMILES is read from it. * marks the point of attachment. 5TAMRA = CN(C)c1ccc2c(c1)Oc1cc(N(C)C)ccc1C21OC(=O)c2cc(C(=O)*)ccc21

Regarding `CC(C)C[C@H](NC(=O)CNC(=O)[C@H](C)NC(=O)[C@H](CC(C)C)NC(=O)[C@H](CCCNC(=N)N)NC(=O)[C@H](Cc1c[nH]cn1)NC(=O)[C@@H](NC(=O)[C@@H](NC(=O)[C@@H]1CSSC[C@H](NC(=O)[C@H](C)N)C(=O)N[C@@H](CC(=O)O)C(=O)N[C@@H]([C@@H](C)O)C(=O)N[C@@H](C)C(=O)N[C@@H]([C@@H](C)O)C(=O)N1)C(C)C)[C@@H](C)O)C(=O)N[C@@H](CC(C)C)C(=O)N[C@@H](CO)C(=O)N[C@@H](CCCNC(=N)N)C(=O)N[C@@H](CO)C(=O)NCC(=O)NCC(=O)N[C@H](C(=O)N[C@H](C(=O)N[C@@H](CCCCN)C(=O)N[C@@H](CC(N)=O)C(=O)N[C@@H](CC(N)=O)C(=O)N[C@@H](Cc1ccccc1)C(=O)N[C@H](C(=O)N1CCC[C@H]1C(=O)N[C@H](C(=O)N[C@@H](CC(=O)O)C(=O)N[C@H](C(=O)NCC(=O)N1CCC[C@H]1C(=O)N[C@@H](Cc1c[nH]c2ccccc12)C(=O)N[C@@H](CO)C(=O)N[C@@H](Cc1ccccc1)C(N)=O)C(C)C)[C@@H](C)O)C(C)C)C(C)C)C(C)C` [ssCGRP(1-37)] (H-ACDTATCVTHRLAGLLSRSGGVVKNNFVPTDVGPWSF-NH2; disulfide 2-7), the Ki came to 0.19 ± 0.01 nM in assay [1] (G protein coupled state (30 μM sumo-miniGs), 3 nM AM2/IMD(8-47)-TAMRA probe, 8 h, read-out: Ki + mGs) and 0.248 ± 0.008 nM in assay [1] (G protein uncoupled state (50 μM GTPγS), 30 nM AM2/IMD(8-47)-TAMRA probe, 8 h, read-out: Ki + GTPγS).

With FVPTDVGPWSF-NH2 [ssCGRP(27-37)], in assay [1] (setting [4]), the Ki came to 0.527 ± 0.039 nM. For the same compound, in assay [2], the koff was 0.00222 s⁻¹ and the kon is 3.22e+06 M⁻¹ s⁻¹. For the same compound, in assay [2] (from competition kinetics), the “Residence time (1/koff)” value was 7.57 ± 0.27 min and ~8 min; the “t1/2 (ln 2/koff)” value was 5.24 ± 0.18 min; the Kd was 0.73 nM.

Turning to “FVPTNVGSKAF-NH2 [CGRP(27-37), reference compound]”, the Ki in assay [1] (setting [4]) was found to be 1050 nM. Moreover, in assay [2], the koff is 0.203 s⁻¹ and the kon is 195000 M⁻¹ s⁻¹. Further, in assay [2] (from competition kinetics), the “Residence time (1/koff)” value was 0.087 ± 0.015 min, the residence time is roughly 0.0833 min, the “t1/2 (ln 2/koff)” value is reported as 0.06 ± 0.01 min and the Kd is 1040 nM.

Compound `CC(C)[C@H](NC(=O)[C@H](CC(=O)O)NC(=O)[C@@H](NC(=O)[C@@H]1CCCN1C(=O)[C@@H](NC(=O)[C@@H](N)Cc1ccccc1)C(C)C)[C@@H](C)O)C(=O)NCC(=O)N1CCC[C@H]1C(=O)N[C@@H](CCCCNC(=O)c1ccc2c(c1)C(=O)OC21c2ccc(N(C)C)cc2Oc2cc(N(C)C)ccc21)C(=O)N[C@@H](CO)C(=O)N[C@@H](Cc1ccc(O)cc1)C(N)=O` [CGRP(27-37)*-TAMRA, αCGRP(27-37) N31D/S34P/K35-TAMRA/A36S/F37Y] (H-FVPTDVGPK(5TAMRA)SY-NH2; N-terminus assumed) had a kon in assay [3] (association kinetics, 25 °C, kobs vs probe concentration, slope of linear regression, fit of first 10 min (full 1 h 15 min for ssCGRP(8-37)-TAMRA), mean ± SEM, n=3) of 2.75e+06 M⁻¹ s⁻¹. This compound also gave a koff in assay [3] (association kinetics, 25 °C, y-intercept of kobs vs probe concentration, mean ± SEM, n=3) of 0.0635 s⁻¹. The compound also showed a half-life in assay [3] (from association kinetics) of 11 s.

The Ki is the equilibrium dissociation constant of an inhibitor or competing ligand from its target. The koff is the first-order rate constant of dissociation. Low readings indicate slow dissociation, high ones fast dissociation. One may read the kon as a measure of how fast the partners come together.
